Test results from patent US11999806B2, “Broad-spectrum polypeptide against enterovirus and application thereof” (WUHAN INSTITUTE OF VIROLOGY, CHINESE ACADEMY OF SCIENCES, priority 2018, dated 2024).
Several values for one entry are separate records, joined by “and”; a condition that tells them apart may be missing. Equal entries are not always repeated. Where two headings read alike, the source gives them in different places. No end group written: not given here.

Legend:
RD cells = test: Cytotoxicity by CCK-8 in RD cells; format: cell-based; details: RD cells; for Cell viability (%): 24 h; for cytotoxicity, result in words: CCK-8, 24 h
[1] = Cytotoxicity by CCK-8 in RD cells; format: cell-based; details: human

RRRRRRRREEVRQYCRDQ [P2]
Cell viability (%) (RD cells; 0.01 μM polypeptide, untreated = 100%): 104.6% and 102.7% | Cell viability (%) (RD cells; 0.1 μM polypeptide, untreated = 100%): 104% and 100.6% | Cell viability (%) (RD cells; 1 μM polypeptide, untreated = 100%): 105.4% and 98.81% | Cell viability (%) (RD cells; 10 μM polypeptide, untreated = 100%): 101.1% and 99.03% | Cell viability (%) (RD cells; 100 μM polypeptide, untreated = 100%): 106.8% and 94.07% | cytotoxicity, result in words (RD cells): not toxic to cells within 100 μM | viability at 24 h, 0.01 µM ([1]; RD cells, 0.01 μM polypeptide, 24 h, untreated = 100%, read-out: Cell viability (%)): 98% | viability at 24 h, 0.1 µM ([1]; RD cells, 0.1 μM polypeptide, 24 h, untreated = 100%, read-out: Cell viability (%)): 94.4% | viability at 24 h, 1 µM ([1]; RD cells, 1 μM polypeptide, 24 h, untreated = 100%, read-out: Cell viability (%)): 105% | viability at 24 h, 10 µM ([1]; RD cells, 10 μM polypeptide, 24 h, untreated = 100%, read-out: Cell viability (%)): 96.6% | viability at 24 h, 100 µM ([1]; RD cells, 100 μM polypeptide, 24 h, untreated = 100%, read-out: Cell viability (%)): 90.1% | CC50 at 24 h ([1]; Table 1 summary, cell line not given, read-out: CC50): > 100 µM

YGRKKRRQRRRGSGEEVRQYCR [ER]
Cell viability (%) (RD cells; 0.46875 μM): 99.34% and 100% | Cell viability (%) (RD cells; 2.34375 μM): 98.07% and 102.7% | Cell viability (%) (RD cells; 4.6875 μM): 100.8% and 103.1% | Cell viability (%) (RD cells; 9.375 μM): 98.48% and 102.4% | Cell viability (%) (RD cells; 18.75 μM): 96.59% and 98.47% | Cell viability (%) (RD cells; 37.5 μM): 95.69% and 92.24% | Cell viability (%) (RD cells; 75 μM): 89.79% and 90.36% | Cell viability (%) (RD cells; 150 μM): 74.32% and 76.72% | Cell viability (%) (RD cells; 300 μM): 43.39% and 48.41% | cytotoxicity, result in words (RD cells): very low toxicity | viability at 24 h, 0.46875 µM ([1]; RD cells, 0.46875 μM, 24 h, read-out: Cell viability (%)): 99.9% | viability at 24 h, 2.34375 µM ([1]; RD cells, 2.34375 μM, 24 h, read-out: Cell viability (%)): 98.6% | viability at 24 h, 4.6875 µM ([1]; RD cells, 4.6875 μM, 24 h, read-out: Cell viability (%)): 99.1% | viability at 24 h, 9.375 µM ([1]; RD cells, 9.375 μM, 24 h, read-out: Cell viability (%)): 98.5% | viability at 24 h, 18.75 µM ([1]; RD cells, 18.75 μM, 24 h, read-out: Cell viability (%)): 99% | viability at 24 h, 37.5 µM ([1]; RD cells, 37.5 μM, 24 h, read-out: Cell viability (%)): 94.8% | viability at 24 h, 75 µM ([1]; RD cells, 75 μM, 24 h, read-out: Cell viability (%)): 89.7% | viability at 24 h, 150 µM ([1]; RD cells, 150 μM, 24 h, read-out: Cell viability (%)): 72.9% | viability at 24 h, 300 µM ([1]; RD cells, 300 μM, 24 h, read-out: Cell viability (%)): 42.2% | CC50 at 24 h ([1]; RD cells, CCK-8, 24 h, Example 15, read-out: 50% cytotoxic concentration (CC50)): 290 µM
